# Results taken from patent publication US8492310B2, “Herbicidal compositions containing benzoylpyrazole compounds” (priority 2008, dated 2013).
# Read-outs that look alike come from different tables or passages of the source.
# Key:
# Format in all cases: in vivo
# [1] = tested on: crabgrass (Digitaria sanguinalis L.); assay: Foliar treatment pot test, visual growth inhibition rate, crabgrass (DS); details: Digitaria sanguinalis, foliar
# Outline: (§1)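 Seeds were sown in upland soil pots, and plants were sprayed on the foliage at a predetermined leaf stage with herbicidal compositions diluted in water at 300 L/ha. Growth inhibition was rated visually. Expected combination activity was calculated by Colby's formula to assess synergy.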
# [2] = tested on: giant foxtail (Setaria faberi Herrm.); assay: Foliar treatment pot test, visual growth inhibition rate, giant foxtail (SF); details: 336 h, read-out: Growth inhibition rate (%) of SF Measured value
# From the text: (§2) When the herbicidal activity in a case where two active ingredients are combined, is larger than the simple sum of the respective herbicidal activities of the two active ingredients (the expected activity), it is called a synergistic effect. The activity expected by the combination of two active ingredients can be calculated as follows (Colby S. R., “Weed”, vol. 15, p. 20-22, 1967). E=α+β−(α×β÷100) where
# (§3) Upland field soil was put into a 1/1,000,000 hectare pot, and seeds of various plants (barnyardgrass (Echinochloa crus-qalli L.), crabgrass (Digitaria sanguinalis L.), giant foxtail (Setaria faberi Herrm.), velvetleaf (Abutilon theophrasti MEDIC.) and prickly sida (Sida spinosa L.)) were sown. When the respective plants reached predetermined leaf stage, herbicidal compositions in predetermined amounts were diluted with water in an amount corresponding to 300 L/ha and applied for foliar treatment by a small sprayer.
# (§4) Further, in accordance with the above Colby's formula, the growth inhibition rate (calculated value) was calculated. In Tables, with respect to the compound Q, Compound Nos. in Table 1 are described, and with respect to other herbicidal compounds, common names are described. Further, in Tables, barnyardgrass is represented by “EC”, crabgrass by “DS”, giant foxtail by “SF”, velvetleaf by “AT”, and prickly sida by “SS”.
# [3] = tested on: velvetleaf (Abutilon theophrasti MEDIC.); assay: Foliar treatment pot test, visual growth inhibition rate, velvetleaf (AT)
# Outline: as §1
# [4] = tested on: barnyardgrass (Echinochloa crus-qalli L.); assay: Foliar treatment pot test, visual growth inhibition rate, barnyardgrass (EC); details: 504 h, 4.0-5.0 leaf stage, 21 DAT, read-out: Growth inhibition rate (%) of EC Measured value
# From the text: as §2, §3, §4
structure (smiles),measurement,setting,value
"CCn1ncc(C(=O)c2ccc(S(C)(=O)=O)c(OCCOC)c2C)c1OC(C)OC(=O)OC (centres unmarked) [NO. 4, 1-(1-ethyl-4-(3-(2-methoxyethoxy)-2-methyl-4-(methylsulfonyl)benzoyl)-1H-pyrazol-5-yloxy)ethyl methyl carbonate]",inhibition at 7 g/ha,"[1]; 336 h, read-out: Growth inhibition rate (%) of DS Measured value, 5.0-5.5 leaf stage, 14 DAT, 7 g/ha",75%
same,inhibition at 5 g/ha,"[1]; 480 h, read-out: Growth inhibition rate (%) of DS Measured value, 3.6-3.8 leaf stage, 20 DAT, 5 g/ha",40%
same,inhibition at 10 g/ha,"[1]; 480 h, read-out: Growth inhibition rate (%) of DS Measured value, 3.6-3.8 leaf stage, 20 DAT, 10 g/ha",50%
same,inhibition at 20 g/ha,"[1]; 480 h, read-out: Growth inhibition rate (%) of DS Measured value, 3.6-3.8 leaf stage, 20 DAT, 20 g/ha",73%
same,inhibition at 5 g/ha,"[1]; 480 h, read-out: Growth inhibition rate (%) of DS Measured value, 3.7-4.0 leaf stage, 20 DAT, 5 g/ha",93%
same,inhibition at 5 g/ha,"[1]; 480 h, read-out: Growth inhibition rate (%) of DS Measured value, 4.0-4.2 leaf stage, 20 DAT, 5 g/ha",40%
same,inhibition at 10 g/ha,"[1]; 480 h, read-out: Growth inhibition rate (%) of DS Measured value, 4.0-4.2 leaf stage, 20 DAT, 10 g/ha",50%
same,inhibition at 20 g/ha,"[1]; 480 h, read-out: Growth inhibition rate (%) of DS Measured value, 4.0-4.2 leaf stage, 20 DAT, 20 g/ha",73%
same,inhibition at 5 g/ha,"[1]; 480 h, read-out: Growth inhibition rate (%) of DS Measured value, 4.5-5.2 leaf stage, 20 DAT, 5 g/ha",53%
same,inhibition at 10 g/ha,"[1]; 480 h, read-out: Growth inhibition rate (%) of DS Measured value, 4.5-5.2 leaf stage, 20 DAT, 10 g/ha",89%
same,inhibition at 10 g/ha,"[1]; 480 h, read-out: Growth inhibition rate (%) of DS Measured value, 5.0-5.2 leaf stage, 20 DAT, 10 g/ha",93%
same,inhibition at 20 g/ha,"[1]; 480 h, read-out: Growth inhibition rate (%) of DS Measured value, 5.0-5.2 leaf stage, 20 DAT, 20 g/ha",98%
same,inhibition at 5 g/ha,"[1]; 480 h, read-out: Growth inhibition rate (%) of DS Measured value, 5.1-5.2 leaf stage, 20 DAT, 5 g/ha",48%
same,inhibition at 10 g/ha,"[1]; 480 h, read-out: Growth inhibition rate (%) of DS Measured value, 5.1-5.2 leaf stage, 20 DAT, 10 g/ha",73%
same,inhibition at 5 g/ha,"[1]; 504 h, read-out: Growth inhibition rate (%) of DS Measured value, 4.0-5.1 leaf stage, 21 DAT, 5 g/ha",75%
same,inhibition at 20 g/ha,"[1]; 528 h, read-out: Growth inhibition rate (%) of DS Measured value, 4.8-5.5 leaf stage, 22 DAT, 20 g/ha",94%
same,inhibition at 7 g/ha,"[1]; 552 h, read-out: Growth inhibition rate (%) of DS Measured value, 4.0-5.1 leaf stage, 23 DAT, 7 g/ha",80%
same,inhibition at 10 g/ha,"[1]; 552 h, read-out: Growth inhibition rate (%) of DS Measured value, 4.5-5.3 leaf stage, 23 DAT, 10 g/ha",87%
same,inhibition at 20 g/ha,"[1]; 552 h, read-out: Growth inhibition rate (%) of DS Measured value, 4.5-5.3 leaf stage, 23 DAT, 20 g/ha",99%
same,inhibition at 7 g/ha,[2],75%
same,Growth inhibition rate (%) of AT Measured value,"[3]; 3.0-4.0 leaf stage, 14 DAT, 15 g/ha",80%
same,Growth inhibition rate (%) of AT Measured value,"[3]; 4.0-4.2 leaf stage, 20 DAT, 20 g/ha",98%
same,Growth inhibition rate (%) of AT Measured value,"[3]; 4.2-4.3 leaf stage, 20 DAT, 5 g/ha",58%
same,Growth inhibition rate (%) of AT Measured value,"[3]; 4.2-4.3 leaf stage, 20 DAT, 10 g/ha",65%
same,inhibition at 7 g/ha,"[3]; Abutilon theophrasti, foliar, 336 h, read-out: Growth inhibition rate (%) of AT Measured value, 3.0-4.0 leaf stage, 14 DAT, 7 g/ha",70%
same,inhibition at 5 g/ha,"[3]; Abutilon theophrasti, foliar, 480 h, read-out: Growth inhibition rate (%) of AT Measured value, 4.0-4.2 leaf stage, 20 DAT, 5 g/ha",48%
same,inhibition at 10 g/ha,"[3]; Abutilon theophrasti, foliar, 480 h, read-out: Growth inhibition rate (%) of AT Measured value, 4.0-4.2 leaf stage, 20 DAT, 10 g/ha",73%
same,inhibition at 5 g/ha,"[3]; Abutilon theophrasti, foliar, 480 h, read-out: Growth inhibition rate (%) of AT Measured value, 4.1-4.2 leaf stage, 20 DAT, 5 g/ha",55%
same,inhibition at 10 g/ha,"[3]; Abutilon theophrasti, foliar, 480 h, read-out: Growth inhibition rate (%) of AT Measured value, 4.1-4.2 leaf stage, 20 DAT, 10 g/ha",63%
same,inhibition at 10 g/ha,"[3]; Abutilon theophrasti, foliar, 480 h, read-out: Growth inhibition rate (%) of AT Measured value, 4.2-4.3 leaf stage, 20 DAT, 10 g/ha",63%
same,inhibition at 20 g/ha,"[3]; Abutilon theophrasti, foliar, 480 h, read-out: Growth inhibition rate (%) of AT Measured value, 4.2-4.3 leaf stage, 20 DAT, 20 g/ha",70%
same,inhibition at 5 g/ha,"[3]; Abutilon theophrasti, foliar, 504 h, read-out: Growth inhibition rate (%) of AT Measured value, 4.0-4.3 leaf stage, 21 DAT, 5 g/ha",35%
same,inhibition at 10 g/ha,"[3]; Abutilon theophrasti, foliar, 504 h, read-out: Growth inhibition rate (%) of AT Measured value, 4.0-4.3 leaf stage, 21 DAT, 10 g/ha",60%
same,inhibition at 5 g/ha,"[3]; Abutilon theophrasti, foliar, 504 h, read-out: Growth inhibition rate (%) of AT Measured value, AT 4.0-4.3 leaf stage, 21 DAT, active ingredient 5 g/ha",35%
same,inhibition at 10 g/ha,"[3]; Abutilon theophrasti, foliar, 504 h, read-out: Growth inhibition rate (%) of AT Measured value, AT 4.0-4.3 leaf stage, 21 DAT, active ingredient 10 g/ha",60%
same,inhibition at 5 g/ha,"[3]; Abutilon theophrasti, foliar, 528 h, read-out: Growth inhibition rate (%) of AT Measured value, 4.5-5.0 leaf stage, 22 DAT, 5 g/ha",40%
same,inhibition at 10 g/ha,"[3]; Abutilon theophrasti, foliar, 528 h, read-out: Growth inhibition rate (%) of AT Measured value, 4.5-5.0 leaf stage, 22 DAT, 10 g/ha",50%
same,inhibition at 20 g/ha,"[3]; Abutilon theophrasti, foliar, 528 h, read-out: Growth inhibition rate (%) of AT Measured value, 4.5-5.0 leaf stage, 22 DAT, 20 g/ha",90%
same,inhibition at 5 g/ha,"[3]; Abutilon theophrasti, foliar, 552 h, read-out: Growth inhibition rate (%) of AT Measured value, 3.0-4.2 leaf stage, 23 DAT, 5 g/ha",75%
same,inhibition at 10 g/ha,"[3]; Abutilon theophrasti, foliar, 552 h, read-out: Growth inhibition rate (%) of AT Measured value, 3.0-4.2 leaf stage, 23 DAT, 10 g/ha",90%
same,inhibition at 20 g/ha,"[3]; Abutilon theophrasti, foliar, 552 h, read-out: Growth inhibition rate (%) of AT Measured value, 3.0-4.2 leaf stage, 23 DAT, 20 g/ha",95%
"CCCCCCCCSC(=O)Oc1cc(Cl)nnc1-c1ccccc1 [Pyridate, pyridate]",inhibition at 100 g/ha,[4]; 100 g/ha,0%
same,inhibition at 200 g/ha,"[1]; 528 h, 4.0-5.0 leaf stage, 22 DAT, 200 g/ha, read-out: Growth inhibition rate (%) of DS Measured value",0%
same,inhibition at 100 g/ha,"[2]; 4.0-5.0 leaf stage, 14 DAT, 100 g/ha",0%
same,inhibition at 200 g/ha,"[3]; Abutilon theophrasti, foliar, 336 h, 4.1-4.5 leaf stage, 14 DAT, 200 g/ha, read-out: Growth inhibition rate (%) of AT Measured value",30%
COC(=O)c1sccc1S(=O)(=O)NC(=O)Nc1nc(C)nc(OC)n1 [Thifensulfuron-methyl],inhibition at 5 g/ha,[4]; 5 g/ha,0%
same,inhibition at 5 g/ha,"[2]; 4.0-5.0 leaf stage, 14 DAT, 5 g/ha",0%
